# US10045952B2, “Anti-Viral Compound and Composition” (Forest Herbs Research Limited, priority 2013, dated 2018)
# Entries after “also recorded” stand apart in the source; their conditions may differ.
# Tests used:
# cells = details: literature statement; cited from earlier work
# HSV-1 [1] = assay: Crystal violet assay, anti-viral activity against HSV-1 in HaCaT cells; format: cell-based, Herpes simplex type 1 virus
# Method: The crystal violet assay depends on the ability of adherent cell lines such as Vero to stick to the bottom of tissue culture plates. Damaged or dead cells lose their ability to adhere and are removed during a washing process. Viable cells remaining are stained with crystal violet, which is then released from the cells and measured in a spectrophotometer. Vero cells were seeded at 3×10^5 cells/ml overnight at 37° C. in 96-well tissue culture plates. When cells had reached confluency, 50 μl of the growth media was removed and replaced with 25 μl of virus and 25 μl of test product. Controls were the same as those used in the xCelligence assay. The assay was terminated after 96 hours which is the length of time taken to see CPE in the control wells. In the first test (results shown in FIGS. 2A and B), the HSV-1 anti-viral activity of pure polygodial was assessed in comparison to Acyclovir in both Vero cells (FIG. 2A) and HaCaT cells (FIG. 2B).
# [2] = tested on: Vero cells and HaCaT cells; assay: Cytotoxicity to the cells used in the in vitro anti-viral testing (crystal violet assay); format: cell-based, African Green Monkey; details: at the concentrations tested in the anti-viral assay
# Method: (§1) The crystal violet assay depends on the ability of adherent cell lines such as Vero to stick to the bottom of tissue culture plates. Damaged or dead cells lose their ability to adhere and are removed during a washing process. Viable cells remaining are stained with crystal violet, which is then released from the cells and measured in a spectrophotometer.
# (§2) Vero cells were seeded at 3×10^5 cells/ml overnight at 37° C. in 96-well tissue culture plates. When cells had reached confluency, 50 μl of the growth media was removed and replaced with 25 μl of virus and 25 μl of test product. Controls were the same as those used in the xCelligence assay. The assay was terminated after 96 hours which is the length of time taken to see CPE in the control wells.
# In this test, it was confirmed that polygodial is not cytotoxic at the concentrations tested because where strong anti-viral activity is present, the cells are alive and uninfected by the virus.
# HSV-1 [3] = assay: Crystal violet assay, anti-viral activity against HSV-1 in Vero cells; format: cell-based, Herpes simplex type 1 virus
# Method: A wild-type HSV-1 obtained from ESR, Upper Hutt, was cultured in Vero (African Green Monkey kidney) tissue culture cells. HSV-1 virus was added to confluent Vero cell monolayers and allowed to infect until >70% cytopathic effect was observed. The infected cultures were then frozen and thawed three times and centrifuged at 3000 rpm for 15 minutes. The supernatant was stored at −80° C. until use.
# as §1, §2
# [4] = 4 μl/ml Acyclovir, virus only control infection rate about 75%
structure (smiles),measurement,setting,value
CC1(C)CCC[C@@]2(C)[C@H]1CC=C(C=O)[C@]2(O)C=O [warburganal],cytotoxicity,cells,particularly cytotoxic
CC1(C)CCC[C@]2(C)[C@@H](C=O)C(C=O)=CC[C@@H]12 [polygodial],concentration at which anti-viral effect was comparative to 4 μl/ml Acyclovir,HSV-1 [1]; HaCaT cells,0.3125 mg/mL
same,cytotoxicity,[2],not cytotoxic; also recorded: low cytotoxicity
same,MIC,"HSV-1 [3]; Human alphaherpesvirus 1, calculated, HSV-1, cell line not distinguished (Vero and HaCaT)",600 to 1200 µg/mL
same,concentration at which anti-viral effect was comparative to 4 μl/ml Acyclovir,HSV-1 [3]; Vero cells,0.15 mg/mL
"Nc1nc2c(ncn2COCCO)c(=O)[nH]1 [Acyclovir, reference compound]","uninfected HaCaT cells, Acyclovir control, second test (FIG. 3B)",HSV-1 [1]; [4],75%
same,"uninfected cells, Acyclovir control, first test (FIGS. 2A and B)","HSV-1 [3]; 4 μl/ml Acyclovir, Vero and HaCaT not distinguished, virus only control infection rate about 80%",80%
same,"uninfected Vero cells, Acyclovir control, second test (FIG. 3A)",HSV-1 [3]; [4],60%
